Experimental data published in ChEMBL document CHEMBL5576081, “Exploring the structural activity relationship of the Osimertinib: A covalent inhibitor of double mutant EGFRL858R/T790M tyrosine kinase for the treatment of Non-Small Cell Lung Cancer (NSCLC)” (Bioorg Med Chem, 2024).

Tests used:
A-431 = assay: Antiproliferative activity against human A-431 cells assessed as reduction in cell viability incubated for 48 hrs by MTT assay; type: functional, cell-based; settings: A-431, 48 h
NCI-H1975 [1] = assay: Cytotoxicity against human NCI-H1975 cells assessed as reduction in cell viability incubated for 48 hrs by CCK-8 assay; type: functional, cell-based; settings: NCI-H1975, 48 h
PC-9 [2] = assay: Antiproliferative activity against human PC-9 cells harboring EGFR del19 mutant assessed as cell growth inhibition incubated for 72 hrs by CellTiter Glo assay; type: functional, cell-based; settings: PC-9, 72 h
NCI-H292 = assay: Cytotoxicity against human NCI-H292 cells assessed as reduction in cell viability incubated for 48 hrs by CCK-8 assay; type: functional, cell-based; settings: NCI-H292, 48 h
LoVo [3] = assay: Antiproliferative activity against human LoVo cells harboring wild-type EGFR assessed as reduction in cell growth incubated for 72 hrs by CCK8 assay; type: functional, cell-based
PC-9 [4] = assay: Antiproliferative activity against human PC-9 cells harboring EGFR Del19 mutant assessed as inhibition of cell growth incubated for 72 hrs by CCK8 assay; type: functional, cell-based; settings: PC-9, 72 h
NCI-H1975 [5] = assay: Antiproliferative activity against human NCI-H1975 cells harboring EGFR L858R/T790M double mutant assessed as reduction in cell growth incubated for 72 hrs by CellTiter-Glo luminescent assay; type: functional, cell-based; settings: NCI-H1975, 72 h
[6] = target: T1, Epidermal growth factor receptor (Homo sapiens, UniProt P00533, L858R/T790M); assay: Inhibition of EGFR L858R/T790M (unknown origin)
[7] = Antiproliferative activity against mouse KC-0116 cells; type: toxicity, cell-based
[8] = Antiproliferative activity against mouse Ba/F3 EGFR-T790M/L858R cells incubated for 3 days by Cell Titer-Glo assay; type: functional, cell-based; settings: 72 h
PC-9 [9] = assay: Cytotoxicity against human PC-9 cells assessed as reduction in cell viability incubated for 48 hrs by CCK-8 assay; type: functional, cell-based; settings: PC-9, 48 h
NCI-H1975 [10] = assay: Antiproliferative activity against human NCI-H1975 cells; type: functional, cell-based
LoVo [11] = assay: Antiproliferative activity against human LoVo cells harboring wild-type EGFR assessed as reduction in cell viability; type: functional, cell-based
[12] = target: Epidermal growth factor receptor (Homo sapiens, UniProt P00533); assay: Inhibition of wild-type EGFR (unknown origin) using TK as substrate incubated for 120 mins in presence of ATP by HTRF assay
[13] = target: T1, Epidermal growth factor receptor; assay: Inhibition of EGFR L858R/T790M mutant (unknown origin)
NCI-H1975 [14] = assay: Antiproliferative activity against human NCI-H1975 cells assessed as reduction in cell viability incubated for 72 hrs by Cell-titer glo assay; type: functional, cell-based; settings: NCI-H1975, 72 h

T1 sequence (P00533 25-1210 T790M/L858R limits assumed): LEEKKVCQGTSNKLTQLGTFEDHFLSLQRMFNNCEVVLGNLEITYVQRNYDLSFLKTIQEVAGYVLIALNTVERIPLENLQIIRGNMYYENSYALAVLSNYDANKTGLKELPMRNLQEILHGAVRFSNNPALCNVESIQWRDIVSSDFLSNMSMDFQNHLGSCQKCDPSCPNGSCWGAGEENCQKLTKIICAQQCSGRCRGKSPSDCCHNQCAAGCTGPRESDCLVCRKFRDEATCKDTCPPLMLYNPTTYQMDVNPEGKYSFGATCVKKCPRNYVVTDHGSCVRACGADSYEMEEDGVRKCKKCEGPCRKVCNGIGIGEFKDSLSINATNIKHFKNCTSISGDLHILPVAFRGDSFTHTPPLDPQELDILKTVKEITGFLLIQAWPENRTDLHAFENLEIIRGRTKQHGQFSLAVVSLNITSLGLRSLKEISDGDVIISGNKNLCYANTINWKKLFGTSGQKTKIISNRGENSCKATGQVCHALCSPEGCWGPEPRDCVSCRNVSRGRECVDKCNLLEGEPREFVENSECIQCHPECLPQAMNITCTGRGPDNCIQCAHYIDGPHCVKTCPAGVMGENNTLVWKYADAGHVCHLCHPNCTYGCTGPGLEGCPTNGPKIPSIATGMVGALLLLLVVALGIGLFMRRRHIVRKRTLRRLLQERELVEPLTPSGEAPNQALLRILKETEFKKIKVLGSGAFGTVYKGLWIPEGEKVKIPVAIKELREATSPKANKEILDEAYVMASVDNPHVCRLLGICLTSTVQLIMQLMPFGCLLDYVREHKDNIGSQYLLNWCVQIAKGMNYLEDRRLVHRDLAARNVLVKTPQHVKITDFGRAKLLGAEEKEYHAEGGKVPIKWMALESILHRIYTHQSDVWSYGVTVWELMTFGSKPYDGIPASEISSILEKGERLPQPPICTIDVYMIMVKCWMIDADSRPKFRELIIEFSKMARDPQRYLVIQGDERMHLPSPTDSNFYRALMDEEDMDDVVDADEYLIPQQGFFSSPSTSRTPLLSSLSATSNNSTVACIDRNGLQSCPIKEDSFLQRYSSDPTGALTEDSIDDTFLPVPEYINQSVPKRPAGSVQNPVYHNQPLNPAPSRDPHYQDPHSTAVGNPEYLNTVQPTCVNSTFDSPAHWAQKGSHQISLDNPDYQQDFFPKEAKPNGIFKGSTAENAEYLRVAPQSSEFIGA
Sequence of Epidermal growth factor receptor (Homo sapiens, UniProt P00533) (P00533 whole entry): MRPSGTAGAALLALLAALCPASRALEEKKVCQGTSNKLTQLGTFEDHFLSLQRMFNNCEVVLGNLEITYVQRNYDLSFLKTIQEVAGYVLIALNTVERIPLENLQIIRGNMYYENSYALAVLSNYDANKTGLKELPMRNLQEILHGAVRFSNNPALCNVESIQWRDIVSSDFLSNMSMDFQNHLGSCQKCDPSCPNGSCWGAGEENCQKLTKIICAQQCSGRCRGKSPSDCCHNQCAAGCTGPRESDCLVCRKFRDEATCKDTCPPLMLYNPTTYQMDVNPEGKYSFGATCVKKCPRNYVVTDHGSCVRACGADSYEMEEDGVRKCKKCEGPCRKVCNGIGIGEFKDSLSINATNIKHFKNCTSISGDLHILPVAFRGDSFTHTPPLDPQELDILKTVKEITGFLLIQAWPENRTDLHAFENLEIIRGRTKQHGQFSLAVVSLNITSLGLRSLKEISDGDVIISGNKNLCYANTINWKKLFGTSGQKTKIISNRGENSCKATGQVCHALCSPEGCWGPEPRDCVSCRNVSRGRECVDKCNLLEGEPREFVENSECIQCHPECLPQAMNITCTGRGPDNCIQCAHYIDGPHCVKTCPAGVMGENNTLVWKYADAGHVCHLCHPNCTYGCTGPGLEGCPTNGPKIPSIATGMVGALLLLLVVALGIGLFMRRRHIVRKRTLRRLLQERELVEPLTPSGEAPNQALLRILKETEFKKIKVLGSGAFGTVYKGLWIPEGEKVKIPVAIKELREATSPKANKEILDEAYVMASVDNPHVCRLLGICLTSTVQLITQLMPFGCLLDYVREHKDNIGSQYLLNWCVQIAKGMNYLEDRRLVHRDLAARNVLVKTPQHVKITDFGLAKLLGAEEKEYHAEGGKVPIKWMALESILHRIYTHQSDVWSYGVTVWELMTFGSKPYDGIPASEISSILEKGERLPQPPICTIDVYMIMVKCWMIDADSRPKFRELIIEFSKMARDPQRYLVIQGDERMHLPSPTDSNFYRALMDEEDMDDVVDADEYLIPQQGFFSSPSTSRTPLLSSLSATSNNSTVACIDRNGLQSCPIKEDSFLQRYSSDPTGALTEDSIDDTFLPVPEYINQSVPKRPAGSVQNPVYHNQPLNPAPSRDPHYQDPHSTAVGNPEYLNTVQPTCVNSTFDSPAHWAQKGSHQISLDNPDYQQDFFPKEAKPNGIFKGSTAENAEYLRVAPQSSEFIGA

C=CC(=O)Nc1cc(Nc2nccc(-c3cn(C)c4ccccc34)n2)c(OC)cc1N(C)CCN(C)C [OSIMERTINIB]
IC50 (NCI-H292): 2000 nM

C=CC(=O)Nc1cc(Nc2ncc(Cl)c(-c3cnn4ccccc34)n2)c(OC)cc1N1CC(N(C)C)C1
IC50 (LoVo [3]): 938 nM
IC50 (PC-9 [4]): 21 nM

C=CC(=O)Nc1cc(Nc2ncc(Cl)c(-c3cnn4ccccc34)n2)c(OC)cc1N1CC[C@@H](N(C)C)C1
IC50 (NCI-H1975 [5]): 2 nM
IC50 (LoVo [3]): 3360 nM
IC50 (PC-9 [4]): 16 nM

COc1cc(N(C)CCN(C)C)c(NC(=O)c2ccnc(Cl)c2)cc1Nc1nccc(-c2cn(C)c3ccccc23)n1
IC50 [6]: 420 nM

CN(C)C1CCN(c2ccc(Nc3nccc(-c4cn(C)c5ccccc45)n3)cc2NS(C)(=O)=O)CC1
IC50 [7]: 160 nM
IC50 [8]: 170 nM

C=CC(=O)Nc1cc(Nc2ncc(Cl)c(-c3cnn4ccccc34)n2)c(OC)cc1N1CCN(C(=O)[C@H](C)O)CC1
IC50 (NCI-H1975 [5]): 75 nM
IC50 (LoVo [3]): 10300 nM
IC50 (PC-9 [4]): 179 nM

CN1CCN(C2CCN(c3ccc(Nc4nccc(-c5cn(C)c6ccccc56)n4)cc3NS(=O)(=O)C3CC3)CC2)CC1
IC50 [7]: 170 nM
IC50 [8]: 200 nM

Cn1cc(-c2ccnc(Nc3cccc(NC(=O)CCN)c3)n2)c2ccccc21
IC50 [7]: 4990 nM
IC50 [8]: 4770 nM

C=CC(=O)Nc1cc(Nc2ncc(F)c(-c3csc4ccccc34)n2)c(OC)cc1N(C)CCNC(C)C
IC50 (NCI-H1975 [1]): 13 nM
IC50 (NCI-H292): 3960 nM
IC50 (PC-9 [9]): 30 nM

C=CC(=O)Nc1cc(Nc2nccc(-c3csc4ccccc34)n2)c(OC)cc1N1CCN(C(C)C)CC1
IC50 (NCI-H1975 [1]): 130 nM
IC50 (NCI-H292): > 10000 nM
IC50 (PC-9 [9]): 1300 nM

C=CC(=O)Nc1cc(Nc2nccc(-c3cn(C)c4ccccc34)n2)c(OC)cc1N(C)CCN(C)CC(=O)OC
IC50 [6]: 5.7 nM
IC50 (NCI-H1975 [10]): 8 nM

C=CC(=O)Nc1cc(Nc2nccc(-c3cn(C)c4ccccc34)n2)c(OC)cc1N(C)CCN(C)C(=O)c1ccc(Br)cc1
IC50 [6]: 12.5 nM
IC50 (NCI-H1975 [10]): 30 nM

C=CC(=O)Nc1cc(Nc2ncc(C#N)c(-c3cn(C)c4ccccc34)n2)c(OC)cc1N(C)CCN(C)C
IC50 (NCI-H1975 [5]): 0.9 nM
IC50 (LoVo [11]): 46 nM
IC50 (PC-9 [2]): 2 nM

C=CC(=O)Nc1cc(Nc2nccc(-c3cn(C)c4ccccc34)n2)c(OC)cc1N(C)CCN(C)Cc1ccc(Br)cc1
IC50 [6]: 8.1 nM
IC50 (NCI-H1975 [10]): 20 nM

C=CC(=O)Nc1cc(Nc2nccc(-c3csc4ccccc34)n2)c(OC)cc1N1CCN(CC)CC1
IC50 (NCI-H1975 [1]): 90 nM
IC50 (NCI-H292): > 10000 nM
IC50 (PC-9 [9]): 800 nM

COc1cc(N(C)CCN(C)C)c(NC(=O)c2ncccn2)cc1Nc1nccc(-c2cn(C)c3ccccc23)n1
IC50 [6]: > 500 nM

C=CC(=O)Nc1cc(Nc2nccc(-c3c[nH]c4ccccc34)n2)c(OC)cc1N(C)CCN(C)C
IC50 (NCI-H1975 [5]): 2 nM
IC50 (LoVo [11]): 33 nM
IC50 (PC-9 [2]): 2 nM

C=CC(=O)Nc1cc(Nc2ncc(Cl)c(-c3cnn4ccccc34)n2)c(OC)cc1N(C)CCN(C)C
IC50 (NCI-H1975 [5]): 0.6 nM
IC50 (LoVo [3]): 145 nM
IC50 (PC-9 [4]): 2 nM

C=CC(=O)Nc1cc(Nc2nccc(-c3csc4ccccc34)n2)c(OC)cc1N(C)CCCN(C)C
IC50 (NCI-H1975 [1]): 170 nM
IC50 (NCI-H292): 4000 nM
IC50 (PC-9 [9]): 300 nM

CN(C)C1CCN(c2ccc(Nc3nccc(-c4cn(C)c5ccccc45)n3)cc2)CC1
IC50 [7]: 400 nM
IC50 [8]: 450 nM

C=CC(=O)Nc1cc(Nc2nccc(Nc3ccn(C)n3)n2)c(OC)cc1N(C)CCN(C)CC(=O)OC
IC50 [6]: 42.3 nM

C=CC(=O)Nc1cc(Nc2nccc(Nc3ccn(C)n3)n2)c(OC)cc1N(C)CCN(C)C
IC50 [6]: 6.1 nM

COc1cc(N(C)CCN(C)C)c(NC(=O)c2cnccn2)cc1Nc1nccc(-c2cn(C)c3ccccc23)n1
IC50 [6]: > 500 nM

Cn1cc(-c2ccnc(Nc3ccc(N4CCCCC4)cc3)n2)c2ccccc21
IC50 [7]: 10000 nM
IC50 [8]: > 10000 nM

COCC(=O)Nc1cc(Nc2nccc(-c3cn(C)c4ccccc34)n2)c(OC)cc1N1CCC(N(C)C)CC1
IC50 [7]: 460 nM
IC50 [8]: 450 nM

C=CC(=O)Nc1cc(Nc2ncc(Cl)c(-c3cnn4ccccc34)n2)c(OC)cc1N1CCN(C(=O)CNC)CC1
IC50 (NCI-H1975 [5]): 66 nM
IC50 (LoVo [3]): 7500 nM
IC50 (PC-9 [4]): 156 nM

C=CCCN(C)CCN(C)c1cc(OC)c(Nc2nccc(-c3cn(C)c4ccccc34)n2)cc1NC(=O)C=C
IC50 [6]: 2 nM
IC50 (NCI-H1975 [10]): 2 nM

C=CC(=O)Nc1cc(Nc2ncc(Cl)c(-c3cnn4ccccc34)n2)c(OC)cc1N1CCN(C(=O)CN(C)C)CC1
IC50 (NCI-H1975 [5]): 16 nM
IC50 (LoVo [3]): 10000 nM
IC50 (PC-9 [4]): 73 nM

C=CC(=O)Nc1cc(Nc2ncc(Cl)c(-c3c[nH]c4ccccc34)n2)c(OC)cc1N(C)CCN(C)C
IC50 (NCI-H1975 [5]): 0.2 nM
IC50 (LoVo [11]): 11 nM
IC50 (PC-9 [2]): 0.6 nM

Cn1cc(-c2ccnc(Nc3ccc(N4CCOCC4)cc3)n2)c2ccccc21
IC50 [7]: 7000 nM
IC50 [8]: > 10000 nM

C=CC(=O)Nc1cc(Nc2nccc(-c3cn(C)c4ccccc34)n2)c(OC)cc1N(C)CCN(C)Cc1ccccc1
IC50 (NCI-H1975 [10]): 4 nM

CN(C)C1CCN(c2ccc(Nc3nccc(-c4cn(C)c5ccccc45)n3)cc2NS(=O)(=O)C2CC2)CC1
IC50 [7]: 240 nM
IC50 [8]: 250 nM

COc1cc(N(C)CCN(C)C)c(NC(=O)c2ccnc(Cl)c2)cc1Nc1nccc(-c2cn(CCCO)c3ccccc23)n1
IC50 [6]: 137 nM

C=CC(=O)Nc1cc(Nc2nccc(-c3csc4ccccc34)n2)c(OC)cc1N(C)CCN(C)C
IC50 (NCI-H1975 [1]): 2 nM
IC50 [12]: 4.11 nM
IC50 (NCI-H292): 4400 nM
IC50 (PC-9 [9]): 4 nM
IC50 [13]: 0.26 nM

COc1cc(N2CCC(N3CCN(C)CC3)CC2)ccc1Nc1ncc(Cl)c(Nc2ccccc2P(C)(C)=O)n1 [BRIGATINIB]
IC50 [7]: 350 nM
IC50 [8]: 450 nM

COc1cc(N(C)CCN(C)C)c(NC(=O)c2ccncc2OC)cc1Nc1nccc(-c2cn(C)c3ccccc23)n1
IC50 [6]: > 500 nM

C=CC(=O)Nc1cc(Nc2ncc(Cl)c(-c3cn(C4CC4)c4ccccc34)n2)c(OC)cc1N(C)CCN(C)C
IC50 (A-431): 59 nM
IC50 (NCI-H1975 [14]): 8.15 nM

Cn1cc(-c2ccnc(Nc3ccc(N4CCC(N5CCOCC5)CC4)cc3)n2)c2ccccc21
IC50 [7]: 1710 nM
IC50 [8]: 5740 nM

COc1cc(N(C)CCN(C)C)c(NC(=O)CNC(=O)OC(C)(C)C)cc1Nc1nccc(-c2cn(C)c3ccccc23)n1
IC50 [7]: 1290 nM
IC50 [8]: 1280 nM

COc1cc(N(C)CCN(C)C)c(NC(=O)CN)cc1Nc1nccc(-c2cn(C)c3ccccc23)n1
IC50 [7]: 1320 nM
IC50 [8]: 2720 nM

C=CC(=O)Nc1cc(Nc2ncc(C)c(-c3cn(C)c4ccccc34)n2)c(OC)cc1N(C)CCN(C)C
IC50 (NCI-H1975 [5]): 1 nM
IC50 (LoVo [11]): 71 nM

C=CC(=O)Nc1cc(Nc2nccc(Nc3cnn(CC)c3)n2)c(OC)cc1N(C)CCN(C)C
IC50 [6]: 8 nM

COc1cc(N2CCC(N(C)C)CC2)c(NC(=O)CO)cc1Nc1nccc(-c2cn(C)c3ccccc23)n1
IC50 [7]: 460 nM
IC50 [8]: 480 nM

C=CC(=O)Nc1cc(Nc2ncc(Cl)c(-c3cnn4ccccc34)n2)c(OC)cc1N1CCN(C(=O)[C@H](C)N)CC1
IC50 (NCI-H1975 [5]): 19 nM
IC50 (LoVo [3]): 1600 nM
IC50 (PC-9 [4]): 28 nM

C=CC(=O)Nc1cc(Nc2ncc(Cl)c(-c3cn(C)c4ccccc34)n2)c(OC)cc1N(C)CCN(C)C
IC50 (NCI-H1975 [5]): 2 nM
IC50 (LoVo [11]): 58 nM
IC50 (PC-9 [2]): 2 nM

C=CC(=O)Nc1cc(Nc2ncc(Cl)c(-c3cnn4ccccc34)n2)c(OC)cc1N1CCN(C(=O)[C@@H](C)N)CC1
IC50 (NCI-H1975 [5]): 177 nM
IC50 (LoVo [3]): 9000 nM
IC50 (PC-9 [4]): 351 nM

C=CC(=O)Nc1cc(Nc2nccc(-c3csc4ccccc34)n2)c(OC)cc1N1CCN(C)CC1
IC50 (NCI-H1975 [1]): 500 nM
IC50 (NCI-H292): > 10000 nM
IC50 (PC-9 [9]): 1900 nM

COc1cc(N(C)CCN(C)C)c(NC(=O)c2ccncn2)cc1Nc1nccc(-c2cn(CCCO)c3ccccc23)n1
IC50 [6]: 161 nM

COc1cc(N(C)CCN(C)C)c(NC(=O)c2ccncn2)cc1Nc1nccc(-c2cn(C)c3ccccc23)n1
IC50 [6]: 242 nM

C#CCN(C)CCN(C)c1cc(OC)c(Nc2nccc(Nc3ccn(C)n3)n2)cc1NC(=O)C=C
IC50 [6]: 8.58 nM
